The record followed here is US7071221B2, “Heterocyclic oxime compounds” (Les Laboratoires Servier, priority 2004, dated 2006).

The subject of this data set is ob/ob mouse. As to the kind of experiment: Antidiabetic and hypolipidaemic effect in the ob/ob mouse. The class given is in vivo. As to conditions: female ob/ob mouse; for decrease of glycaemia compared to the control group: twice per day for four days (10 mg/kg i.p. or 30 mg/kg per os; route not given), glycaemia 24 hours after final administration. From the text: Mutations in laboratory animals and also different sensitivities to dietary regimens have allowed the development of animal models having non-insulin dependent diabetes and hyperlipidaemia associated with obesity and with resistance to insulin.
Genetic mice models (ob/ob) (Diabetes, 1982, 31 (1), 1–6) and Zucker (fa/fa) rats have been developed by various laboratories in order to understand the physiopathology of those diseases and test the efficacy of new antidiabetic compounds (Diabetes, 1983, 32, 830–838).
Antidiabetic and Hypolipidaemic Effect in the ob/ob Mouse
The 10-week-old female ob/ob mouse (Harlan) is used for the in vivo tests. The animals are kept in a light-darkness cycle of 12 hours at 25° C. The mouse has a basal hyperglycaemia of 2 g/l. The animals are randomly selected in terms of their glycaemia to form groups of six. The compounds tested by the intraperitoneal route are dissolved in a mixture of dimethyl sulphoxide (10%) and Solutol (15%) to be administered at 10 mg/kg in a volume of 2.5 ml/kg twice per day for four days. By the per os route, the compounds are tested at 30 mg/kg administered in a volume of 2.5 ml/kg of 1% HEC twice per day for four days. The control groups receive the solvents under the same conditions as the treated groups. The activity of the products is evaluated by measuring glycaemia 24 hours after the final administration and by measuring body weight daily.

On to `CN(CCOc1ccc(CC2SC(=O)NC2=O)cc1)c1ccccn1` (centres unmarked) [Rosiglitazone, rosiglitazone], for which the “decrease of glycaemia compared to the control group” value turned out to be 61%. In addition, the “change in body weight” value (four days treatment, body weight measured daily) is “significant increase”. Also, where the note is “twice per day for four days”, the “increase of the body weight compared to the increase of body weight of the control group” value is 33%.
On to `CON=C(c1ccccc1)c1ccc2c(c1)sc(=O)n2CCOc1ccc(CC(OCC(F)(F)F)C(=O)OC)cc1` (centres unmarked) [Example 3, Methyl 3-{4-[2-(6-[(methoxyimino)(phenyl)methyl]-2-oxo-1,3-benzothiazol-3(2H)-yl)ethoxy]phenyl}-2-(2,2,2-trifluoroethoxy)-propanoate], for which the “decrease of glycaemia compared to the control group” value was found to be 51%. Also, where the note is “twice per day for four days”, the “decrease of the gain of weight compared to the control group” value is listed as 80%.
